From US20140121260A1, “NOVEL CONJUGATES OF POLYUNSATURATED FATTY ACIDS WITH AMINES AND THERAPEUTIC USES THEREOF” (MedWell Laboratories Ltd., priority 2006, published 2014)

What was measured:
ovine COX-2 = target: T1, ovine COX-2 (Ovis aries, UniProt P79208); experiment: In vitro COX-2 inhibition, enzyme immuno assay (EIA) kit; type: biochemical; conditions: for IC50: ovine COX-2, EIA, duplicate determinations; for Ration (COX ½): ratio of COX-1 IC50 to COX-2 IC50
T1 construct: purchased Cayman Chemical 560101
T1 sequence (P79208 17-603): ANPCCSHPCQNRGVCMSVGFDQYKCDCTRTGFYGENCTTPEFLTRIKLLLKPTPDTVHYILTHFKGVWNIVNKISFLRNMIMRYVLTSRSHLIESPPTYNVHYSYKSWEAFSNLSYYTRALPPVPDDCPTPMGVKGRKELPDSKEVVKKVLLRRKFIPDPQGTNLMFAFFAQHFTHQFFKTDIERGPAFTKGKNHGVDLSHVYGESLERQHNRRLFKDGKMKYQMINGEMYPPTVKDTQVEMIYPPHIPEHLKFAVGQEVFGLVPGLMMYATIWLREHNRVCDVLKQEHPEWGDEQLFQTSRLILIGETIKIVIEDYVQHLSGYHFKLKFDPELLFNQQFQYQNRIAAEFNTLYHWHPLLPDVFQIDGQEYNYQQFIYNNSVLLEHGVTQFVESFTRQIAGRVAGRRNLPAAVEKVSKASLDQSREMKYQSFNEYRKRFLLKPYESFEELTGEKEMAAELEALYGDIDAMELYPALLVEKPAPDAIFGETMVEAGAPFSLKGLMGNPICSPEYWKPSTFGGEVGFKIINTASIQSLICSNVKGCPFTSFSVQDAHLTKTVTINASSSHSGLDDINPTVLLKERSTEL
Method: (§1) The exemplary conjugates shown in FIGS. 5 A-E, to which reference is now made, were tested for inhibition of COX-1 and COX-2 to in-vitro activity The ability of the test compounds listed in the Table 1 to inhibit ovine COX-1 and COX-2 (IC50 values, […]) was determined using an enzyme immuno assay (EIA) kit catalog number 560101, Cayman Chemical, Ann Arbor, Mich., USA) according to the manufacturers instructions.
(§2) Cyclooxygenase catalyzes the first step in the biosynthesis of arachidonic acid (AA) to PGH2. PGF2α, produced from PGH2 by reduction with stannous chloride, is measured by enzyme immunoassay (ACETM competitive EIA).
(§3) Stock solutions of test compounds were dissolved in a minimum volume of DMSO. Briefly, to a series of supplied reaction buffer solutions (960 μL, 0.1M Tris-HCl pH 8.0 containing 5 mM EDTA and 2 mM phenol) with either COX-1 or COX-2 (10 μL) enzyme in the presence of heme (10 μL) were added 10 μL of various concentrations of test drug solutions (0.01, 0.1, 1, 10, 50, and 100 μM in a final volume of 1 mL). These solutions were incubated for a period of 5 min at 37° C. after which 10 μL of AA (100 μM) solution were added and the COX reaction was stopped by the addition of 50 μL of 1M HCl after 2 min. PGF2α, produced from PGH2 by reduction with stannous chloride was measured by enzyme immunoassay.
(§4) This assay is based on the competition between PGs and a PG-acetylcholinesterase conjugate (PG tracer) for a limited amount of PG antiserum. The amount of PG tracer that is able to bind to the PG antiserum is inversely proportional to the concentration of PGs in the wells since the concentration of PG tracer is held constant while the concentration of PGs varies. The concentration of the test compound causing 50% inhibition (IC50, μM) was calculated from the concentration-inhibition response curve (duplicate determinations).

ovine COX-1 = target: T2, ovine COX-1 (Ovis aries, UniProt P05979); experiment: In vitro COX-1 inhibition, enzyme immuno assay (EIA) kit; type: biochemical; conditions: ovine COX-1, EIA, duplicate determinations
T2 construct: purchased Cayman Chemical 560101
T2 sequence (P05979 25-600): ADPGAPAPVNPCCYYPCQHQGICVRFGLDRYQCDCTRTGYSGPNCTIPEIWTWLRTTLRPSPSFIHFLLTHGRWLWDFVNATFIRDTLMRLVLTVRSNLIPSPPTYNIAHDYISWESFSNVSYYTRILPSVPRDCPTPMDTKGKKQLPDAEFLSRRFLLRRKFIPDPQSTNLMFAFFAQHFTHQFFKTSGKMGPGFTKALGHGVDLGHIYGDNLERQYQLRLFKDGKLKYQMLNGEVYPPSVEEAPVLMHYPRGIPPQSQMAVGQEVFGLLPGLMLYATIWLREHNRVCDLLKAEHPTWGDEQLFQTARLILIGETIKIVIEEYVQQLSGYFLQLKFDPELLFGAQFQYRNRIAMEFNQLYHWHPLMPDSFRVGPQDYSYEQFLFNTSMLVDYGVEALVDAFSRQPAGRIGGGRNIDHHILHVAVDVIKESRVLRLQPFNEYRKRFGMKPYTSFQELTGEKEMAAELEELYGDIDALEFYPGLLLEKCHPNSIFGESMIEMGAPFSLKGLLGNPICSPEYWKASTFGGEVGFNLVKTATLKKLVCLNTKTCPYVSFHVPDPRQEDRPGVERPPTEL
Method: as §1, §2, §3, §4

[1] = tested on: carrageenin-induced edema of the hind paw; experiment: Carrageenin-induced paw edema in rats; conditions: for Swelling volume: rat hind paw; for decrease in the edema size: after 1 h, versus control
Method: Sprague dawley rats (150-200 g) were used. Edema was induced by a single sub-plantar injection of carrageenin (1 mg/paw) into the left hind paw of the rat under light ether anesthesia. The total volume injected was always 0.1 ml. […] The results were expressed either as the increase in paw volume (ml) calculated by subtracting the basal volume or by calculating the area under the time-course curve (AUC; ml h) for each group.

[2] = tested on: inflammatory bowel disease IBD (ulcerative colitis); experiment: Tri-nitrobenzene sulfunic acid induced ulcerative colitis in rats, MPO activity in colon; type: in vivo, Sprague dawley rats; conditions: 25 mg/kg rectally, inflamed area of the colon, FIG. 7
Method: The exemplary RNX006 compound shown in FIG. 5 F, to which reference is now made, was tested for the effect on the inflammatory bowel disease IBD (ulcerative colitis) in rats as follows. Male Sprague dawley rats were used in this study. Briefly, ulcerative colitis was induced by tri-nitrobenzene sulfunic acid as described in the literature. Rats were divided into 4 groups, (−) sham (healthy, (+) control ulcerative colitis (UC, not treated), UC treated with RNX006 (25 mg/kg), and UC treated with 5-amino salicylic acid (5-ASA 25 mg/kg). RNX006 and 5-ASA were administered rectally during all the period of the experiment. At the end of the experiment animals were sacrificed and the colon was isolated to test the severity of the inflammation. The severity of the inflammation was tested by measurement of the myeloperoxidase activity (MPO activity) in the inflamed area of the colon.

| SMILES | IC50 (ovine COX-2) | Ration (COX ½) (ovine COX-2) | IC50 (ovine COX-1) | Swelling volume ([1]; 1 hr after carrageenin) | Swelling volume ([1]; 2 hr after carrageenin) | Swelling volume ([1]; 3 hr after carrageenin) | Swelling volume ([1]; 4 hr after carrageenin) | decrease in the edema size [1] | MPO activity relatively to IBD rats treated with 5-ASA [2] | MPO activity relatively to the (+) control of non-treated IBD rats [2] |
| --- | --- | --- | --- | --- | --- | --- | --- | --- | --- | --- |
| CCCCCCCC/C=C/CCCCCCCC(=O)N1CC(O)CC1C(=O)O (stereo not drawn) [RNX001] | 1.3 µM | 55.7 | 72.5 µM | 1.1 ± 0.09 mL | 1.3 ± 0.13 mL | 1.9 ± 0.1 mL | 1.8 ± 0.13 mL | 31% | – | – |
| CCCCC/C=C/C/C=C/CCCCCCCC(=O)N1CC(O)CC1C(=O)O (stereo not drawn) [RNX002] | 0.51 µM | 103.3 | 52.7 µM | 0.9 ± 0.06 mL | 1.6 ± 0.09 mL | 2.3 ± 0.11 mL | 2.1 ± 0.13 mL | 43.4% | – | – |
| CC/C=C\C/C=C/C/C=C/C/C=C/C/C=C/CCCC(=O)N1CC(O)CC1C(=O)O (stereo not drawn) [RNX004] | 0.085 µM | 464.11 | 39.5 µM | – | – | – | – | – | – | – |
| CC/C=C\C/C=C/C/C=C/C/C=C/C/C=C/C/C=C/CCC(=O)N1CC(O)CC1C(=O)O (stereo not drawn) [RNX005] | 0.081 µM | 528.68 | 42.8 µM | – | – | – | – | – | – | – |
| CCCCC/C=C/C/C=C/C/C=C/CCCCC(=O)NCCS(=O)(=O)O [RNX006] | – | – | – | – | – | – | – | – | even a lower MPO activity | significantly lower MPO activity |
